# From patent publication US20230132823A1, “BI-FUNCTIONAL COMPOUNDS AND METHODS FOR TARGETED UBIQUITINATION OF ANDROGEN RECEPTOR” (MONTELINO THERAPEUTICS, INC., priority 2020, published 2023)
# Read-outs that look alike come from different tables or passages of the source. Where a SMILES comes first, the peptide text is derived from it. [ ]: non-standard residue; d: D form. The star is where a group is joined. ξ: configuration not given here. X1 = O=C(COc1c(-c2csc(N3CCOCC3)n2)ccc(F)c1F)NCCCCCCN*; Dip = N[C@H](C(=O)O)C(c1ccccc1)c1ccccc1; Chg = N[C@H](C(=O)O)C1CCCCC1; NMeA = CN[C@@H](C)C(=O)O; ξP = O=C(O)C1CCCN1
# Experiments:
# [1] = tested on: 22Rv1-Enz^R tumor xenografts; assay: 22Rv1-Enz^R tumor xenograft in castrated nu/nu mice; format: in vivo; conditions: for tumor mass at 7 weeks: control approx. 1500 mm^3
# Description: In Vivo Study. To explore the therapeutic potential of Test Compound, 22Rv1, 22Rv1-Enz^R, VCaP, and VCaP-Enz^R are injected into nu/nu immunodeficient mice. When the resulting tumors reached an average size of 3 mm in diameter, all animals are surgically castrated via bilateral orchiectomy and divided into four groups of five mice each. For anesthesia, 3% isoflurane gas inhalation is used. Tumor size was measured using calipers and tumor volume was calculated using the formula: tumor volume=length×width^2[…].
# Mice are then treated daily with Test Compound with or without enzalutamide via the indicated route (intratumoral, intraperitoneal, or oral) for five to six weeks. At the end of the study, all animals are sacrificed and tumors are harvested and analyzed. Statistical significance is calculated using the Student's t-test for paired comparisons of experimental groups and, where appropriate, by Wilcoxon rank sum test, and by 2-way ANOVA. In vitro experiments are repeated a minimum of three times.
# (§1) The in vivo effects of the Compound of Example 16 are assessed in mice using enzalutamide-resistant CaP xenografts. First, 22Rv1-Enz^R tumor xenografts are established in nu/nu mice. Upon CaP xenograft formation (average diameter of 3 mm), mice are randomized into controls or treatment. Control mice are treated with 100 μl vehicle containing 10 mg/ml enzalutamide (n=5). The treatment group is injected with 100 μl vehicle containing 2.5 mg/ml Compound of Example 16 and 10 mg/ml enzalutamide daily directly into tumors (n=5) and tumor volumes were followed. […] Tumors are harvested and analyzed at the end of the study period.
# [2] = tested on: 22Rv1; assay: 22Rv1 cell proliferation assay (Experimental Example 1, cell count); format: cell-based; conditions: Homo sapiens, 22Rv1, read-out: 22Rv1 cell count decrease at 10 μM for 48 hours; 10 μM (method: four days); read-out: 22Rv1 cell count decrease at 10 μM
# Outline: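 Human prostate cancer 22Rv1 cells, reported to express high levels of AR-V7, were grown in RPMI-1640 containing 10% fetal bovine serum. Test compounds were first dissolved in DMSO as 50 mM stock solutions and then diluted to the required concentrations. Proliferation was assessed as the percentage decrease in cell count.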
# [3] = Body weight of tumor-bearing mice during treatment; format: in vivo
# Description: as §1
# Enzalutamide-resistant CaP tumor xenografts are established in twelve mice and three each are assigned to the following four groups: control IP (vehicle), control oral (vehicle), 8.3 mg/kg IP, and 8.3 mg/kg oral. Because these cells are resistant to enzalutamide, all animals are administered enzalutamide.
# [4] = molecular target: T1, AR-V7 (Homo sapiens, UniProt P10275); assay: Immunoblot analysis of AR-V7 protein in CaP cells (Experimental Example 3); format: cell-based; set-up: endogenous in cells; host or cells: 22Rv1 (also VCaP, LNCaP and SAT-resistant sublines)
# T1 sequence (P10275 1-644 isoform P10275-3): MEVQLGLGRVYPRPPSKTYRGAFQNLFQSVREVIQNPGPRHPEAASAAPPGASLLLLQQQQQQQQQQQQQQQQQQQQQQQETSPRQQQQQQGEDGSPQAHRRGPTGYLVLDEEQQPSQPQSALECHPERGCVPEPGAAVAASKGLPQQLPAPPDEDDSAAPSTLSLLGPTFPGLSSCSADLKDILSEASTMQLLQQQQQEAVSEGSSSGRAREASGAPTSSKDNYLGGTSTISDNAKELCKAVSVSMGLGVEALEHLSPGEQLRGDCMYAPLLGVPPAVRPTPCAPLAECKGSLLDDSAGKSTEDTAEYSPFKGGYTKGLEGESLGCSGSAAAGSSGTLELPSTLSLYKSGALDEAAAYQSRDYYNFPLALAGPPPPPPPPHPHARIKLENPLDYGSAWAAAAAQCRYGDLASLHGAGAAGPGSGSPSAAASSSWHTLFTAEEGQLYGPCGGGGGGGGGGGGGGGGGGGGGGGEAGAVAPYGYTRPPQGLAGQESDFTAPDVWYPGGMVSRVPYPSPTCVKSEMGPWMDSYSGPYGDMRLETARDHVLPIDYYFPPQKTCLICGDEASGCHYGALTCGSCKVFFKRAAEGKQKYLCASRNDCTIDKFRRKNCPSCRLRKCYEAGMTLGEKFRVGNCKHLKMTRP
# Description: Cell Culture. Human CaP cell lines, LNCaP, 22Rv1, VCaP, PC3, and DU145 are obtained from the American Type Culture Collection (ATCC) and maintained in the standard culture media: RPMI-1640 supplemented with 10% fetal bovine serum (FBS). LNCaP, 22Rv1, and VCaP are androgen-responsive cell lines, while PC3 and DU145 are not. To establish SAT resistant CaP cell lines, LNCaP, 22Rv1, and VCaP are treated continuously with 10-50 μM abiraterone, apalutamide, darolutamide, or enzalutamide. After 3-6 months, stable cell lines are established and designated as LNCaP-Abi^R, LNCaP-Apa^R, LNCaP-Daro^R, LNCaP-Enz^R, VCaP-Abi^R, VCaP-Apa^R, VCaP-Daro^R, VCaP-Enz^R, 22Rv1-Abi^R, 22Rv1-Apa^R, 22Rv1-Daro^R and 22Rv1-Enz^R. Unless otherwise specified, the standard culture media for these SAT-resistant cell lines included 10 μM of their respective SAT. For the proteasome inhibitor study, the inhibitors MG132 and Epoxomicin are used. The E3 ligase inhibitors Heclin, Nutlin 3a, Thalidomide, and VH298 are used. Cell lines obtained from ATCC are confirmed by checking their morphology using optical microscopy, establishing baselines for cell proliferation, verifying species of origin using isoenzymology, and characterizing the cell's DNA fingerprint using short tandem repeat (STR) profiling. Mycoplasma contamination is also assessed using a PCR based detection system.
# Immunoblot Analysis. CaP cells are collected and lysed with the lysis buffer (20 mM Tris-HCl (pH 7.5), 150 mM NaCl, 1 mM Na2EDTA, 1 mM EGTA, 1% Triton, 2.5 mM sodium pyrophosphate, 1 mM beta-glycerophosphate, 1 mM Na3VO4, and 1 μg/ml leupeptin) containing 1 mM phenylmethylsulfonyl fluoride (PMSF). Cell lysates are then centrifuged and protein in the supernatant is quantified. After separating 25-50 μg of protein using SDS-PAGE, samples are incubated with AR-V7, GR, PR, ERα, AR-FL, ubiquitin, or β-actin antibodies. For AR-V7, AR-FL, PR, GR, and ERα immunoblots, primary antibody is diluted 1:1000 in 5% skim milk. For the β-actin immunoblot, 1:10000 diluted primary antibody is used. All membranes are incubated overnight at 4° C. Following the incubation with appropriate secondary antibody, immunoblots are analyzed using SuperSignal West Femto Maximum Sensitivity Substrate (ThermoFisher).
Compound,"tumor volume at the end of 5 weeks ([1]; intratumoral daily, 100 μl of 2.5 mg/ml compound plus 10 mg/ml enzalutamide, control 800 mm^3)",inhibition at 10 µM [2],"change in weight following treatment ([3]; 8.3 mg/kg systemic dosing, four weeks)","weight of the mice during treatment ([3]; intratumoral, 22Rv1-Enz^R xenograft, 5 weeks)","AR-V7 degradation after pretreatment with proteasome inhibitors ([4]; 22Rv1, 2 hours MG-132 (5 μM) and epoxomicin (1 μM), then compound at 1 μM)","DC50 ([4]; 22Rv1, 24 hours, immunoblot, read-out: DC50, concentration at which 50% of AR-V7 degraded in 24 hours)","AR-V7 degradation after pretreatment with E3 ubiquitin ligase inhibitors ([4]; 22Rv1, two hours VH 298 20 μM, heclin 10 μM, nutlin 3a 0.1 μM or thalidomide 10 μM, then compound at 1 μM)","concentration from which AR-V7 protein expression is decreased (immunoblot) ([4]; 22Rv1 cells, 24 hours, 0, 0.01, 0.1, 1 and 10 μM tested)","AR-V7 protein expression level in parental and SAT-resistant 22Rv1, VCaP and LNCaP cells ([4]; immunoblot, effect on AR-V7 greater than on AR-FL)",tumor mass at 7 weeks ([1]; 0.83 mg/kg),tumor mass at 7 weeks ([1]; 8.3 mg/kg),"changes in animal body mass ([3]; 22Rv1-Enz^R tumors, 8.3 mg/kg and 0.83 mg/kg, 7 weeks)","DC50 ([4]; 24 hours, immunoblot, read-out: DC50, concentration at which 50% of AR-V7 is degraded in 24 hours)"
"Cc1ncsc1-c1ccc([C@H](C)NC(=O)[C@@H]2C[C@@H](O)CN2C(=O)[C@@H](NC(=O)CCCCNC(=O)COc2c(-c3csc(N4CCOCC4)n3)ccc(F)c2F)C(C)(C)C)cc1 [Example 16, (2S,4R)-1-((S)-2-(5-(2-(2,3-difluoro-6-(2-morpholinothiazol-4-yl)phenoxy)acetamido)pentanamido)-3,3-dimethylbutanoyl)-4-hydroxy-N-((S)-1-(4-(4-methylthiazol-5-yl)phenyl)ethyl)pyrrolidine-2-carboxamide]",approximately 500 mm^3,< 50%,no significant change in weight,did not significantly change,completely blocked,370 nM,only VH298 pretreatment inhibits AR-V7 degradation,0.1 µM,decreases the protein expression levels,,,,
"CN[C@@H](C)C(=O)N[C@H](C(=O)N1CCCC1C(=O)N[C@H](C(=O)NCCCCCCNC(=O)COc1c(-c2csc(N3CCOCC3)n2)ccc(F)c1F)C(c1ccccc1)c1ccccc1)C1CCCCC1 (stereo partly drawn) [Example 26, (S)-1-((S)-2-cyclohexyl-2-((S)-2-(methylamino)propanamido)acctyl)-N-((S)-1-((6-(2-(2,3-difluoro-6-(2-morpholinothiazol-4-yl)phenoxy)acetamido)hexyl)amino)-1-oxo-3,3-diphenylpropan-2-yl)pyrrolidine-2-carboxamide] (H-[NMeA][Chg][ξP][Dip]-X1)",,> 50%,,,,,,,,< 600 mm^3,< 600 mm^3,No significant changes,< 50 nM
